Here are results for 7 compounds from paper PMC10999543, “Identification of kinase modulators as host-directed therapeutics against intracellular methicillin-resistant Staphylococcus aureus” (Frontiers in Cellular and Infection Microbiology, 2024).

The structures appear in SMILES notation.

One series has as its system intracellular MRSA. The format is cell-based, Staphylococcus aureus. Particulars: for %GFP+ rep 1 / %GFP+ rep 2 / %GFP+ rep 3: PKIS compound screen raw data; for %GFP+ rep 1 / %GFP+ rep 2 / %GFP+ rep 3 / z-scoreMRSA+ mean / z-scoreMRSA+ rep 1 / z-scoreMRSA+ rep 2 / z-scoreMRSA+ rep 3: MRSA-infected HeLa cells; for %GFP+ rep 1 / z-scoreMRSA+ rep 1: replicate 1; for %GFP+ rep 2 / z-scoreMRSA+ rep 2: replicate 2; for %GFP+ rep 3 / z-scoreMRSA+ rep 3: replicate 3; for z-scoreMRSA+ mean / z-scoreMRSA+ rep 1 / z-scoreMRSA+ rep 2 / z-scoreMRSA+ rep 3 / hit / effect: PKIS compound screen; for z-scoreMRSA+ mean: mean of 3 replicates; for hit: Yes/No call (effect without cell death); for effect: Yes/No call on z-scoreMRSA+. How it is done: (§1) The cells were resuspended in cell culture medium without antibiotics, seeded with 10,000 cells/well into Costar flat-bottom 96-well plates (Corning, Amsterdam, the Netherlands), and were incubated overnight at 37°C/5% CO2. The next day, the bacteria were centrifuged at ≥1800 g for 15 min and resuspended in cold PBS + 5 mM ethylenediaminetetraacetic acid (EDTA). The number of CFUs present in the bacterial suspension was estimated from the optical density at 600 nm (OD600) by assuming 8x10^8 CFUs to be present in a bacterial suspension with OD600 = 1, based on prior titrations. The bacterial suspension was diluted in cell culture medium without antibiotics and added to the cells. Accuracy of the multiplicity of infection (MOI) was validated by plating serial dilutions of the MRSA inoculums on Difco TS agar plates (BD Biosciences). The calculated mean MOI throughout all experiments was 6.8 ± 4.6 (mean ± SD). Infected cells were centrifuged for 3 min at 150 g and incubated for 1 hour at 37°C/5% CO2. Next, the cells were incubated with fresh cell culture medium supplemented with 30 µg/ml gentamicin sulphate (Lonza BioWhittaker, Basel, Switzerland) for 15 min at 37°C/5% CO2 to kill residual extracellular bacteria. Infected cells were incubated overnight at 37°C/5% CO2 in cell culture medium in the presence of kinase inhibitors and 5 µg/ml gentamicin sulphate-containing medium to prevent the growth of extracellular bacteria. The solvent of the compounds, DMSO, was used at equal % v/v as a negative control. For the screen, each compound was tested in triplicate, on separate cell culture plates, resulting in triplicate values for each kinase inhibitor.
(§2) HeLa cells were harvested by trypsinization and fixed with 1% paraformaldehyde. Samples were measured on a FACSLyric with HTS extension (BD Biosciences). Flow cytometry data were analysed using FlowJo version 10 (TreeStar, Ashland, OR, USA). HeLa cells positive for GFP were gated to calculate the percentage of MRSA-infected cells. The cell count was used as surrogate readout of cell viability.
To identify potential “hit” compounds, the flow cytometry data were used to calculate standard z-scores using z = (x-μ)/σ – zneg, where x is total event count or the percent of GFP-positive cells from a single well, μ is the mean from wells of the plate, σ is the standard deviation of the plate and zneg is the mean z-score of the negative control of the plate (i.e., DMSO) ([Korbee et al., 2018]). To minimize the possibility that the presence of extreme values on a plate affected the z-scores, raw values that deviated two-fold from the negative controls were excluded when calculating plate means and standard deviations as used in the aforementioned formula. Compounds were considered a “hit” when z-scoreMRSA+ ≤ -2 and z-scoreHeLa ≥ -3 for cell count. In cases where compounds were screened twice, the average values were used to select hit compounds.

The next series has as its system HeLa cells. Description: Compound screen by flow cytometry: HeLa cell count as surrogate readout of cell viability (z-scoreHeLa). In kind it is cell-based, human. How it is done: as §1, §2
To minimize the possibility that the presence of extreme values on a plate affected the z-scores, raw values that deviated two-fold from the negative controls were excluded when calculating plate means and standard deviations as used in the aforementioned formula. Compounds were considered a “hit” when z-scoreMRSA+ ≤ -2 and z-scoreHeLa ≥ -3 for cell count. In cases where compounds were screened twice, the average values were used to select hit compounds.
For orientation: In flow cytometry, cells or beads pass a laser one at a time.

With `Fc1ccc(-c2ncn(C3CCNCC3)c2-c2ccnc(Oc3ccc(Cl)cc3)n2)cc1` [SB-278539], in the series with intracellular MRSA, the “%GFP+ rep 1” value was 13.4%, the “%GFP+ rep 2” value amounted to 15.5%, the “%GFP+ rep 3” value was determined as 16.2% and the “z-scoreMRSA+ mean” value is listed as -1.14. Moreover, in the series on intracellular MRSA, the “z-scoreMRSA+ rep 1” value was -1.41, the “z-scoreMRSA+ rep 2” value is recorded as -0.91, the “z-scoreMRSA+ rep 3” value is on record as -1.09 and the hit entry is reported as “No”. In addition, the effect entry with intracellular MRSA is given as “No”.
Take `COc1ccccc1C1=C(Nc2ccc(O)c(Cl)c2)C(=O)NC1=O` [SB-381904]: in the series on intracellular MRSA, the “%GFP+ rep 1” value amounted to 16.9%, the “%GFP+ rep 2” value was 18.3%, the “%GFP+ rep 3” value was found to be 18.4% and the “z-scoreMRSA+ mean” value is -0.26. In the series with intracellular MRSA, the “z-scoreMRSA+ rep 1” value is -0.30, the “z-scoreMRSA+ rep 2” value is given as -0.07, the “z-scoreMRSA+ rep 3” value is recorded as -0.42 and the hit entry is given as “No”. In addition, the effect entry in the series with intracellular MRSA is given as “No”.
Turning to `Cc1ccc(C)c(Oc2nccc(-c3c(-c4ccc(F)cc4)ncn3C3CCNCC3)n2)c1` [SB-284852-BT], in the series with HeLa cells, the “cell count rep 1” value turned out to be 26025, the “cell count rep 2” value was found to be 26957, the “cell count rep 3” value turned out to be 22542 and the cell death result is “No”. Further, in the series with HeLa cells, the z-scoreHeLa mean came to 0.10, the “z-scoreHeLa rep 1” value is listed as -0.71, the “z-scoreHeLa rep 2” value was determined as 0.29 and the “z-scoreHeLa rep 3” value amounted to 0.70.
`Fc1ccc(-c2ncn(C3CCNCC3)c2-c2ccnc(Oc3cccc(C(F)(F)F)c3)n2)cc1` [SB-253226]: in the series on intracellular MRSA, the “%GFP+ rep 1” value amounted to 14.0%, the “%GFP+ rep 2” value came out at 15.8%, the “%GFP+ rep 3” value was found to be 16.0% and the “z-scoreMRSA+ mean” value is reported as -1.07. Moreover, in the series with intracellular MRSA, the “z-scoreMRSA+ rep 1” value is -1.22, the “z-scoreMRSA+ rep 2” value is -0.82, the “z-scoreMRSA+ rep 3” value is reported as -1.15 and the hit entry is “No”. In addition, in the series with intracellular MRSA, the effect result is reported as “No”.
`Fc1ccc(-c2ncn(C3CCNCC3)c2-c2ccnc(Oc3cccc(F)c3)n2)cc1` [SB-251505]: in the series on intracellular MRSA, the “%GFP+ rep 1” value is given as 15.0%, the “%GFP+ rep 2” value stood at 15.3%, the “%GFP+ rep 3” value turned out to be 16.6% and the “z-scoreMRSA+ mean” value is listed as -0.95. In the series on intracellular MRSA, the “z-scoreMRSA+ rep 1” value is reported as -0.91, the “z-scoreMRSA+ rep 2” value was -0.97, the “z-scoreMRSA+ rep 3” value was -0.97 and the hit result is given as “No”. For the same compound, the effect result in the series with intracellular MRSA was “No”.
Consider `Cc1cnc(N)c(/C=C/c2cncc(C(=O)NCCc3ccc(Cl)cc3Cl)c2)c1` [GSK190937A], for which, in the series on intracellular MRSA, the “%GFP+ rep 1” value is recorded as 17.3%, the “%GFP+ rep 2” value is on record as 19.0%, the “%GFP+ rep 3” value is on record as 19.5% and the “z-scoreMRSA+ mean” value is -0.04. Moreover, in the series on intracellular MRSA, the “z-scoreMRSA+ rep 1” value is -0.18, the “z-scoreMRSA+ rep 2” value was 0.14, the “z-scoreMRSA+ rep 3” value is -0.09 and the hit entry is “No”. In addition, in the series on intracellular MRSA, the effect entry is given as “No”.
For `Cc1cc(C)cc(Oc2nccc(-c3c(-c4ccc(F)cc4)ncn3C3CCNCC3)n2)c1` [SB-284851-BT], in the series on HeLa cells, the “cell count rep 1” value is given as 26737, the “cell count rep 2” value worked out at 41520, the “cell count rep 3” value is reported as 48762 and the cell death result is given as “No”. Moreover, in the series with HeLa cells, the z-scoreHeLa mean is reported as 1.19, the “z-scoreHeLa rep 1” value was 1.00, the “z-scoreHeLa rep 2” value was found to be 1.26 and the “z-scoreHeLa rep 3” value is 1.31.
